# Reference: patent US20250296938A1, “Compounds that Interact with the Ras Superfamily for the Treatment of Cancers, Inflammatory Diseases, Rasopathies, and Fibrotic Disease” (SHY Therapeutics, LLC, priority 2018, published 2025)
# Read-outs that look alike come from different tables or passages of the source.
# Tests used:
# Assay in all cases: Ras GTP binding domain inhibition assay (Cy3-GTP/Cy5-GTP competition)
# [1] = target: T1, KRas G12D mutant (Homo sapiens, UniProt P01116, G12D); settings: 20 μM
# T1 construct: fused on or other part: His tag, used for capture on nickel-coated plates
# Procedure, shortened: (§1)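 Ni-plate immobilised His-Ras, overnight 4 °C; cpd 20 μM (or dilution series for IC50), 1% DMSO, 3 h RT; optional His-Sos […] last hour; Cy3- or Cy5-GTP 100 nM, 45 min RT; 3× wash; bound fluorescence read.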
# [2] = tested on: KRas wild type; design: species or system human; settings: 20 μM; for KRas wild type: % inh.: without SOS; for KRas wild type % inh.: without SOS (Table 7A)
# Procedure, shortened: as §1
# [3] = tested on: KRas Q61H mutant; design: species or system human; settings: 20 μM
# Procedure, shortened: as §1
# [4] = tested on: KRas G12C mutant; design: species or system human; settings: 20 μM
# Procedure, shortened: as §1
# [5] = with SOS, read-out: KRas G-12D mutant + SOS: % inh.
# [6] = without SOS, read-out: KRas G12D mutant: % inh.
# [7] = with SOS (Table 7A), read-out: KRas G12D mutant + SOS: % inh.
# [8] = without SOS (Table 7A), read-out: KRas G12D mutant: % inh.
SMILES,"inhibition at 20 µM [1, 5] [%]","inhibition at 20 µM [1, 6] [%]",KRas wild type + SOS: % inh. ([2]; with SOS),KRas wild type: % inh. [2],KRas Q61H mutant + SOS: % inh. ([3]; with SOS),KRas Q61H mutant: % inh. ([3]; without SOS),KRas G12C mutant + SOS: % inh. ([4]; with SOS),KRas G12C mutant: % inh. ([4]; without SOS),"inhibition at 20 µM [1, 7] [%]","inhibition at 20 µM [1, 8] [%]",KRas wild type + SOS: % inh. ([2]; with SOS (Table 7A)),KRas wild type % inh. [2],KRas Q61H mutant + SOS: % inh. ([3]; with SOS (Table 7A)),KRas Q61H mutant: % inh. ([3]; without SOS (Table 7A)),KRas G12C mutant + SOS: % inh. ([4]; with SOS (Table 7A)),KRas G12C mutant: % inh. ([4]; without SOS (Table 7A))
COCCNc1nc(-c2cn(C)cn2)nc2sc(-c3cc(OC)ccc3Cl)c(-c3ccc(OC)cc3)c12 [drawing 795],26 to 50,26 to 50,D (76-100% inhibition),B (26-50% inhibition),D (76-100% inhibition),B (26-50% inhibition),D (76-100% inhibition),B (26-50% inhibition),–,–,–,–,–,–,–,–
Cn1ccc(-c2sc3nc(-c4nccn4C)nc(NC4CCOCC4)c3c2-c2ccccc2)n1 [drawing 862],1 to 25,1 to 25,B (26-50% inhibition),B (26-50% inhibition),B (26-50% inhibition),B (26-50% inhibition),A (1-25% inhibition),0 (0% inhibition),–,–,–,–,–,–,–,–
COC1CCN(c2nc(-c3nccn3C)nc3sc(-c4ccnc(N(C)C)c4)c(-c4ccccc4)c23)C1.Cl (stereo not shown),51 to 75,51 to 75,D (76-100% inhibition),C (51-75% inhibition),D (76-100% inhibition),D (76-100% inhibition),D (76-100% inhibition),A (1-25% inhibition),–,–,–,–,–,–,–,–
COc1c(O)nc(-c2ccccn2)nc1Oc1cccnc1 [drawing 802],51 to 75,51 to 75,B (26-50% inhibition),D (76-100% inhibition),C (51-75% inhibition),D (76-100% inhibition),C (51-75% inhibition),C (51-75% inhibition),–,–,–,–,–,–,–,–
COC1CCN(c2nc(-c3nccn3C)nc3sc(-c4ccc(CO)cc4)c(-c4ccccc4)c23)C1.Cl (stereo not shown),51 to 75,1 to 25,D (76-100% inhibition),0 (0% inhibition),D (76-100% inhibition),0 (0% inhibition),D (76-100% inhibition),0 (0% inhibition),–,–,–,–,–,–,–,–
Oc1nc(-c2nccn2Cc2ccccn2)nc2c(-c3ccccn3)csc12 [drawing 851],51 to 75,76 to 100,C (51-75% inhibition),D (76-100% inhibition),D (76-100% inhibition),C (51-75% inhibition),D (76-100% inhibition),D (76-100% inhibition),–,–,–,–,–,–,–,–
COC1CCN(c2nc(-c3nccn3C)nc3sc(-c4cccnc4)c(-c4ccccc4)c23)C1.Cl (stereo not shown),51 to 75,51 to 75,C (51-75% inhibition),C (51-75% inhibition),C (51-75% inhibition),B (26-50% inhibition),D (76-100% inhibition),D (76-100% inhibition),–,–,–,–,–,–,–,–
Oc1nc(-c2cn(-c3ccccc3)cn2)nc2c(-c3ccccn3)csc12 [drawing 847],1 to 25,1 to 25,A (1-25% inhibition),A (1-25% inhibition),A (1-25% inhibition),B (26-50% inhibition),A (1-25% inhibition),0 (0% inhibition),–,–,–,–,–,–,–,–
COC1CCN(c2nc(-c3nccn3C)nc3sc(-c4ccncc4C)c(-c4ccccc4)c23)C1.Cl (stereo not shown),26 to 50,26 to 50,A (1-25% inhibition),B (26-50% inhibition),B (26-50% inhibition),A (1-25% inhibition),B (26-50% inhibition),B (26-50% inhibition),–,–,–,–,–,–,–,–
CC(C)CNC(=O)c1nc(-c2ccccn2)nc(O)c1O [drawing 811],1 to 25,51 to 75,A (1-25% inhibition),D (76-100% inhibition),B (26-50% inhibition),C (51-75% inhibition),B (26-50% inhibition),D (76-100% inhibition),–,–,–,–,–,–,–,–
Cn1ccnc1-c1nc(O)c(O)c(C(=O)N2CCCCC2)n1 [drawing 826],1 to 25,26 to 50,A (1-25% inhibition),C (51-75% inhibition),B (26-50% inhibition),B (26-50% inhibition),A (1-25% inhibition),B (26-50% inhibition),–,–,–,–,–,–,–,–
COc1cccc(Oc2nc(-c3ccccn3)nc(O)c2OC)c1 [drawing 801],51 to 75,76 to 100,C (51-75% inhibition),D (76-100% inhibition),C (51-75% inhibition),D (76-100% inhibition),C (51-75% inhibition),C (51-75% inhibition),–,–,–,–,–,–,–,–

# Results, then the compound that gave them:
"inhibition at 20 µM [1, 5] [%]","inhibition at 20 µM [1, 6] [%]",KRas wild type + SOS: % inh. ([2]; with SOS),KRas wild type: % inh. [2],KRas Q61H mutant + SOS: % inh. ([3]; with SOS),KRas Q61H mutant: % inh. ([3]; without SOS),KRas G12C mutant + SOS: % inh. ([4]; with SOS),KRas G12C mutant: % inh. ([4]; without SOS),"inhibition at 20 µM [1, 7] [%]","inhibition at 20 µM [1, 8] [%]",KRas wild type + SOS: % inh. ([2]; with SOS (Table 7A)),KRas wild type % inh. [2],KRas Q61H mutant + SOS: % inh. ([3]; with SOS (Table 7A)),KRas Q61H mutant: % inh. ([3]; without SOS (Table 7A)),KRas G12C mutant + SOS: % inh. ([4]; with SOS (Table 7A)),KRas G12C mutant: % inh. ([4]; without SOS (Table 7A)),SMILES
26 to 50,1 to 25,C (51-75% inhibition),0 (0% inhibition),C (51-75% inhibition),0 (0% inhibition),C (51-75% inhibition),0 (0% inhibition),–,–,–,–,–,–,–,–,COCC(C)Nc1nc(-c2nccn2C)nc2sc(-c3ccn(C)n3)c(-c3ccccc3)c12 (stereo not shown) [drawing 864]
–,–,–,–,–,–,–,–,51 to 75,26 to 50,D (76-100% inhibition),C (51-75% inhibition),D (76-100% inhibition),C (51-75% inhibition),D (76-100% inhibition),B (26-50% inhibition),COc1cccc(-c2sc3nc(-c4nccn4C)nc(NC4CCC(OC)C4)c3c2-c2ccccc2)c1F (stereo not shown) [drawing 883]
1 to 25,0,A (1-25% inhibition),A (1-25% inhibition),A (1-25% inhibition),A (1-25% inhibition),A (1-25% inhibition),0 (0% inhibition),–,–,–,–,–,–,–,–,COCC(C)Nc1nc(-c2nccn2C)nc2sc(-c3ccn(C)n3)c(-c3ccc(OC)cc3)c12 (stereo not shown) [drawing 869]
–,–,–,–,–,–,–,–,51 to 75,76 to 100,C (51-75% inhibition),D (76-100% inhibition),D (76-100% inhibition),C (51-75% inhibition),C (51-75% inhibition),C (51-75% inhibition),CC(C)COc1ccc(-c2csc3c(O)nc(-c4nccn4Cc4ccccn4)nc23)cn1 [drawing 899]
–,–,–,–,–,–,–,–,26 to 50,51 to 75,B (26-50% inhibition),C (51-75% inhibition),C (51-75% inhibition),C (51-75% inhibition),C (51-75% inhibition),C (51-75% inhibition),CCOc1cccc(Nc2nc(-c3ccccn3)nc(O)c2OC)c1 [drawing 882]
–,–,–,–,–,–,–,–,51 to 75,51 to 75,C (51-75% inhibition),C (51-75% inhibition),C (51-75% inhibition),D (76-100% inhibition),C (51-75% inhibition),D (76-100% inhibition),CO[C@H]1C[C@@H](Nc2nc(-c3nccn3C)nc3sc(C(=O)N4CCOCC4)c(-c4ccccc4)c23)C1 [drawing 922]
–,–,–,–,–,–,–,–,51 to 75,26 to 50,C (51-75% inhibition),C (51-75% inhibition),D (76-100% inhibition),C (51-75% inhibition),C (51-75% inhibition),C (51-75% inhibition),CN(C)CCOCCNc1nc(-c2nccn2C)nc2sc(-c3ccn(C)n3)c(-c3ccccc3)c12 [drawing 907]
76 to 100,26 to 50,D (76-100% inhibition),B (26-50% inhibition),D (76-100% inhibition),B (26-50% inhibition),D (76-100% inhibition),B (26-50% inhibition),–,–,–,–,–,–,–,–,COCCNc1nc(-c2nccn2C)nc2sc(-c3ccccc3Cl)c(-c3ccc(OC)cc3)c12 [drawing 876]
